Results on one compound are retold here after paper PMC6934184, “Selective DNA-PKcs inhibition extends the therapeutic index of localized radiotherapy and chemotherapy” (The Journal of Clinical Investigation, 2019).

For this experiment, the target named is T1, ABL1 T315I (Homo sapiens, UniProt P00519, T315I).
T1 construct: purchased Thermo Fisher Scientific (Life Technologies) SelectScreen
Description: SelectScreen Z'LYTE. It is filed as biochemical. The gist of the method: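 Compound tested in SelectScreen activity assays, Z'LYTE for CSF1R, CDK1/cyclin B and MAP2K6 and Adapta for CAMK1. ATP for CAMK1 was listed as 10, and Km app was used for CSF1R. Results are expressed in percent.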

What is called inhibition is the change of the read-out against control, counted positive when it falls. Regarding `CN(C(=O)CN1CCOCC1)c1ccc2sc3c(-c4cccc5c(=O)cc(N6CC7CCC(C6)O7)oc45)cccc3c2c1` [NU5455], the inhibition at 1 µM is -3%.
